Experimental data taken from PMC6458995, “MAP4K4 Inhibition Promotes Survival of Human Stem Cell-Derived Cardiomyocytes and Reduces Infarct Size In Vivo” (Cell Stem Cell, 2019).

Assays:
Assay in all cases: Dundee kinase panel
Type in all cases: biochemical
Details in all cases: for remaining activity at 1 µM: read-out: residual activity
[1] = target: T1, Aurora A (Homo sapiens, UniProt O14965)
T1 construct: lines 1-140) and Reaction Biology
T1 sequence (O14965 1-403): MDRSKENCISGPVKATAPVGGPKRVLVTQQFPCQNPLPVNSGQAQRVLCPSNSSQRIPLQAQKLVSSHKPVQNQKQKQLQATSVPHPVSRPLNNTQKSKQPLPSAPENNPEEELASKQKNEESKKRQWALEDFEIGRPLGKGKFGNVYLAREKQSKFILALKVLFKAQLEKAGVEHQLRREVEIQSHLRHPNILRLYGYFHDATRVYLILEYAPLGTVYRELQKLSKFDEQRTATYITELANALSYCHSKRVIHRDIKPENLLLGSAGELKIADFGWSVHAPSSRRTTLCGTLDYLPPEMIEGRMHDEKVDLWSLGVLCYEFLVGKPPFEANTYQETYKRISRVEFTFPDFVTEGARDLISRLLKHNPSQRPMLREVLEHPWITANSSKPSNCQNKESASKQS
Procedure: (§1) Compounds were screened at 1 μM. For key hits, pIC50 values were then determined by HTRF as above. […] Stability in mouse and human liver microsomes was determined by Cyprotex.

[2] = target: T2, IRR (Homo sapiens, UniProt P14616)
T2 construct: lines 1-140) and Reaction Biology
T2 sequence (P14616 27-1297): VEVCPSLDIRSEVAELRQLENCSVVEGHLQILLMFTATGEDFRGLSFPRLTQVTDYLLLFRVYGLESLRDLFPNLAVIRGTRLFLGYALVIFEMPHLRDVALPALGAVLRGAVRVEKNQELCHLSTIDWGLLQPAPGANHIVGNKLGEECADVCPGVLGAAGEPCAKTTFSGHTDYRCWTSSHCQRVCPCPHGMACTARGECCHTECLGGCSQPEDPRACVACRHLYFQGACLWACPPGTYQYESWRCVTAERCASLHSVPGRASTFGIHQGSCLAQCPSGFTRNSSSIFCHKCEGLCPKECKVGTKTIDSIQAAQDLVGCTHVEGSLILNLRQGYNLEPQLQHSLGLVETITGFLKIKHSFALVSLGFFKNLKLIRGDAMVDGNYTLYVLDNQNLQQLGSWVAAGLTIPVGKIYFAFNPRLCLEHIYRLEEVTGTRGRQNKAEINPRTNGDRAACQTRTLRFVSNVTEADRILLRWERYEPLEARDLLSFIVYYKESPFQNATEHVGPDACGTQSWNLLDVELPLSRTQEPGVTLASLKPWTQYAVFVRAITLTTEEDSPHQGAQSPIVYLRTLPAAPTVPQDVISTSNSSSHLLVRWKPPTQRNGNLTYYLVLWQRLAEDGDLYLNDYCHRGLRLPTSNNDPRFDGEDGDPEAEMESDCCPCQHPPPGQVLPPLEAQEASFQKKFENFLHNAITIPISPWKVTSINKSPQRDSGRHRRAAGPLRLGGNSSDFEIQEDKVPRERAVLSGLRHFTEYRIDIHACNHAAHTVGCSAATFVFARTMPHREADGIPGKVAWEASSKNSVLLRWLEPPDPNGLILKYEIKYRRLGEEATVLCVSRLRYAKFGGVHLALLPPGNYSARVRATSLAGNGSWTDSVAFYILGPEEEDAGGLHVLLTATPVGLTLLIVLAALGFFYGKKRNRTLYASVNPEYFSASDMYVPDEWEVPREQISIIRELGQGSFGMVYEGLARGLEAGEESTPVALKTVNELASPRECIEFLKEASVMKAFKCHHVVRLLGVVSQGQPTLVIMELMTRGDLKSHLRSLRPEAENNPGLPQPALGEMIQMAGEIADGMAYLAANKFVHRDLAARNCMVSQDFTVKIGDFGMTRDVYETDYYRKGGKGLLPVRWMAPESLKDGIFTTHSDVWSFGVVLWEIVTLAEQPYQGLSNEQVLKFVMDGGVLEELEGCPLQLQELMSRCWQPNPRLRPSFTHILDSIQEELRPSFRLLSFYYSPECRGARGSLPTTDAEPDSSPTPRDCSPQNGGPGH
Procedure: as §1

[3] = target: T3, PIM3 (Homo sapiens, UniProt Q86V86)
T3 construct: lines 1-140) and Reaction Biology
Procedure: as §1

[4] = target: T4, ULK1 (Homo sapiens, UniProt O75385)
T4 construct: lines 1-140) and Reaction Biology
T4 sequence (O75385 1-1050): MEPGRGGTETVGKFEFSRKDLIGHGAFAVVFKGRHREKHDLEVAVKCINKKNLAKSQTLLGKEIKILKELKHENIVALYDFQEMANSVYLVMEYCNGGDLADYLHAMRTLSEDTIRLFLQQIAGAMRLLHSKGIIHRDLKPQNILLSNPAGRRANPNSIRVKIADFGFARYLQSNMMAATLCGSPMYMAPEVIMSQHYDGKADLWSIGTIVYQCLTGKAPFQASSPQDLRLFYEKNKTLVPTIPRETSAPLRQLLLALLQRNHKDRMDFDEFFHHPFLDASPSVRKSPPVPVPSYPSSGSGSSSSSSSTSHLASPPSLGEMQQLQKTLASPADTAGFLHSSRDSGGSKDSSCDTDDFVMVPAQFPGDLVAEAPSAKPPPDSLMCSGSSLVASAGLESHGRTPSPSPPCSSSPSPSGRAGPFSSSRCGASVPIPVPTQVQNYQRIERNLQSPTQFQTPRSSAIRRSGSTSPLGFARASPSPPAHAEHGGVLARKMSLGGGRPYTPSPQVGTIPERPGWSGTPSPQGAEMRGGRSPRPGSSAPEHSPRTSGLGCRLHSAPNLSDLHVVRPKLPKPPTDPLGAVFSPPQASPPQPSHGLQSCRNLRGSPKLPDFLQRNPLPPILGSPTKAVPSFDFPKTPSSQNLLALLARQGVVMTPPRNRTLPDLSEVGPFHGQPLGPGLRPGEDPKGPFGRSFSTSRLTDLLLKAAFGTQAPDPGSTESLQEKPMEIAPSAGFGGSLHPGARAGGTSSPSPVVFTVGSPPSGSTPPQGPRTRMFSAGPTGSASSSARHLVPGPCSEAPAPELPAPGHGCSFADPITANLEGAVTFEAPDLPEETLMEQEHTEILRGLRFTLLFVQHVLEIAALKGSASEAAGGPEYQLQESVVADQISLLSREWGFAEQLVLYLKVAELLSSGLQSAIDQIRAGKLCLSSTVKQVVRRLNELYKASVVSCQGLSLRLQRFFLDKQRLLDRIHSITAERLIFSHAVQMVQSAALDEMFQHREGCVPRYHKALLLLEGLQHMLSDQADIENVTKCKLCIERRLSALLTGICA
Procedure: as §1

[5] = target: T5, p38a MAPK (Homo sapiens, UniProt Q16539)
T5 construct: lines 1-140) and Reaction Biology
T5 sequence (Q16539 whole entry): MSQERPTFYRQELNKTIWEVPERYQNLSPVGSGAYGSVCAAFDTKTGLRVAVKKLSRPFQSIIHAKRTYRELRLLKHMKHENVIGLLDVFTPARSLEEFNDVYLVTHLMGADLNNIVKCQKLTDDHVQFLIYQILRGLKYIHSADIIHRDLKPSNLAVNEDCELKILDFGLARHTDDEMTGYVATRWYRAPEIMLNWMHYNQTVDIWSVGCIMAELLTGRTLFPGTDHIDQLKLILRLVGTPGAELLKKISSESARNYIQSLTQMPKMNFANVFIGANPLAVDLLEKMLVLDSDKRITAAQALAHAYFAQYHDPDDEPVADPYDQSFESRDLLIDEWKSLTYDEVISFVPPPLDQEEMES
Procedure: as §1

[6] = target: T6, EPH-B3 (Homo sapiens, UniProt P54753)
T6 construct: lines 1-140) and Reaction Biology
T6 sequence (P54753 34-998): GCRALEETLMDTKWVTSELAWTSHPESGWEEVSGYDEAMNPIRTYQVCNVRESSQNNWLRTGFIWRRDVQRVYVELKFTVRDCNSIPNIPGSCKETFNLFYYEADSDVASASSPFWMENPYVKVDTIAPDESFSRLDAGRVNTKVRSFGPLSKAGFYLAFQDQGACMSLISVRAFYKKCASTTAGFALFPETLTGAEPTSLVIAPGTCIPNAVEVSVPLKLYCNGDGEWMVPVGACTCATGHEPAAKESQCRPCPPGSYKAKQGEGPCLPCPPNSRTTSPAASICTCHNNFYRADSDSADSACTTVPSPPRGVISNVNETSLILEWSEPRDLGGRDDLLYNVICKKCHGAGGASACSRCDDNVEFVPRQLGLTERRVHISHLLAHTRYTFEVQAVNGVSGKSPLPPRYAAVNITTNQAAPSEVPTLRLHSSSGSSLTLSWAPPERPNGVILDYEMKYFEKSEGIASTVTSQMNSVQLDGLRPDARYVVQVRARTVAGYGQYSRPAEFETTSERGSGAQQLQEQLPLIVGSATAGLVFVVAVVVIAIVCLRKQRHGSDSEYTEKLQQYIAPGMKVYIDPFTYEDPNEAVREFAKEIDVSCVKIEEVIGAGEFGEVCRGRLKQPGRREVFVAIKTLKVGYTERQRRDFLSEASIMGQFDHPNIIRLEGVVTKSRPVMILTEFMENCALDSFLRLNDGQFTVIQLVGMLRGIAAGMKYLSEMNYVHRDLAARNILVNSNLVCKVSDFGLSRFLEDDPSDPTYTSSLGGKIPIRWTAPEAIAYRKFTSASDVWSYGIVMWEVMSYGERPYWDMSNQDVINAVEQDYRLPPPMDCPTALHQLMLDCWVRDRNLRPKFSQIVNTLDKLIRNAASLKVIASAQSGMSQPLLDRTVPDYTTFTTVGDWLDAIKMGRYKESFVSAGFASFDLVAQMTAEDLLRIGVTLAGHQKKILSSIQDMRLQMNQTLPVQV
Procedure: as §1

Structure (SMILES)	remaining activity at 1 µM [1] [%]	remaining activity at 1 µM [2] [%]	remaining activity at 1 µM [3] [%]	remaining activity at 1 µM [4] [%]	remaining activity at 1 µM [5] [%]	remaining activity at 1 µM [6] [%]	residual activity ([1]; 1 μM) [%]	residual activity ([6]; 1 μM) [%]	residual activity ([2]; 1 μM) [%]	residual activity ([3]; 1 μM) [%]	residual activity ([4]; 1 μM) [%]	residual activity ([5]; 1 μM) [%]
O=C1Cc2c([nH]c3ccc(Br)cc23)-c2ccccc2N1 [Kenpaullone]	96	89	103	107	94							
COCCOc1ccc(-c2cn(-c3ccccc3)c3nc[nH]c(=O)c23)cc1 [DMX-5804, 5-[4-(2-methoxy-ethoxy)-phenyl]-7-phenyl-3,7-dihydro-pyrrolo[2,3-d]pyrimidin-4-one]	72	96	88	82	96	96						
O=C1Nc2ccc(I)cc2/C1=C/c1cc(Br)c(O)c(Br)c1 [GW5074]	79	61	6	97	49	94						
Nc1ncc(C(=O)NC2CN(C(=O)C3CC3)C2)c2ccc(-c3cccc(F)c3)nc12 [GNE-495]							73	87	83	87	110	95
Oc1ncnc2c1c(-c1ccccc1)cn2-c1ccccc1 [F1386-0303, 5,7-diphenyl-7H-pyrrolo[2,3-d]pyrimidin-4-ol]	111	95	74	84	78	104						
